Laboratory results taken from ChEMBL document CHEMBL1833824, “Effects of cyclization on stability, structure, and activity of α-conotoxin RgIA at the α9α10 nicotinic acetylcholine receptor and GABA(B) receptor” (J Med Chem, 2011).
pIC50: −log10 of the molar value. Bridge positions count the residues as written; N and C are the ends. Peptide text beside a SMILES is read from it.

Key:
[1] = Inhibition of GABA-B receptor-mediated high voltage-activated Ca2+ channel current in Wistar rat DRG neurons by whole-cell patch clamp assay; settings: DRG neuron
Oocyte [2] = assay: Inhibition of human alpha-9/rat alpha-10 nACHR expressed in Xenopus oocytes assessed as inhibition of acetylcholine-induced current at 50 nM by voltage clamp assay; assay type: cell-based
[3] = Inhibition of human alpha-9/rat alpha-10 nAChR expressed in Xenopus oocytes assessed as inhibition of acetylcholine-induced current by voltage clamp assay; assay type: cell-based; settings: Oocyte
[4] = Metabolic stability in human AB positive serum assessed as compound degradation at 20 uM at 5 hrs; assay type: ADME, cell-free; settings: read-out: Drug metabolism
Oocyte [5] = assay: Inhibition of human alpha-9/rat alpha-10 nACHR expressed in Xenopus oocytes assessed as inhibition of acetylcholine-induced current by voltage clamp assay relative to RgIA; assay type: cell-based; settings: dose or concentration not given here

SMILES	pIC50 [1]	inhibition (Oocyte [2]) [%]	pIC50 [3]	metabolised at 5 h, 20 µM [4] [%]	inhibition (Oocyte [5]) [%]
N=C(N)NCCC[C@H](NC(=O)[C@@H]1CSSC[C@@H]2NC(=O)[C@@H](NC(=O)CN)CSSC[C@H](NC(=O)[C@H](CCCNC(=N)N)NC(=O)[C@@H]3CCCN3C(=O)[C@H](CC(=O)O)NC(=O)[C@H](CO)NC2=O)C(=O)N[C@@H](CCCNC(=N)N)C(=O)N[C@@H](Cc2ccc(O)cc2)C(=O)N[C@@H](CCCNC(=N)N)C(=O)N1)C(=O)O	7.39	60	7.40		
N=C(N)NCCC[C@@H]1NC(=O)[C@H](Cc2ccc(O)cc2)NC(=O)[C@H](CCCNC(=N)N)NC(=O)[C@@H]2CSSC[C@H](NC(=O)CN)C(=O)N[C@@H](CSSC[C@@H](C(=O)O)NC1=O)C(=O)N[C@@H](CO)C(=O)N[C@@H](CC(=O)O)C(=O)N1CCC[C@H]1C(=O)N[C@@H](CCCNC(=N)N)C(=O)N2 (H-GCCSDPRCRYRC-OH; disulfide 2-8, 3-12)	8.36	55	7.47	92	
C[C@H](NC(=O)[C@H](C)NC(=O)CNC(=O)[C@@H]1CSSC[C@H](NC(=O)CN)C(=O)N[C@H]2CSSC[C@H](NC(=O)[C@H](CCCNC(=N)N)NC(=O)[C@@H]3CCCN3C(=O)[C@H](CC(=O)O)NC(=O)[C@H](CO)NC2=O)C(=O)N[C@@H](CCCNC(=N)N)C(=O)N[C@@H](Cc2ccc(O)cc2)C(=O)N[C@@H](CCCNC(=N)N)C(=O)N1)C(=O)O (H-GCCSDPRCRYRCGAA-OH; disulfide 2-12, 3-8)	7.08				8
C[C@H](NC(=O)CNC(=O)[C@@H]1CSSC[C@H](NC(=O)CN)C(=O)N[C@H]2CSSC[C@H](NC(=O)[C@H](CCCNC(=N)N)NC(=O)[C@@H]3CCCN3C(=O)[C@H](CC(=O)O)NC(=O)[C@H](CO)NC2=O)C(=O)N[C@@H](CCCNC(=N)N)C(=O)N[C@@H](Cc2ccc(O)cc2)C(=O)N[C@@H](CCCNC(=N)N)C(=O)N1)C(=O)N[C@@H](C)C(=O)NCC(=O)O (H-GCCSDPRCRYRCGAAG-OH; disulfide 2-12, 3-8)	7.15				12
C[C@H](NC(=O)CNC(=O)[C@@H]1CSSC[C@H](NC(=O)CN)C(=O)N[C@H]2CSSC[C@H](NC(=O)[C@H](CCCNC(=N)N)NC(=O)[C@@H]3CCCN3C(=O)[C@H](CC(=O)O)NC(=O)[C@H](CO)NC2=O)C(=O)N[C@@H](CCCNC(=N)N)C(=O)N[C@@H](Cc2ccc(O)cc2)C(=O)N[C@@H](CCCNC(=N)N)C(=O)N1)C(=O)N[C@@H](C)C(=O)NCC(=O)NCC(=O)O (H-GCCSDPRCRYRCGAAGG-OH; disulfide 2-12, 3-8)	7.94				25
C[C@H](NC(=O)CNC(=O)[C@H](C)NC(=O)[C@H](C)NC(=O)CNC(=O)CNC(=O)[C@@H]1CSSC[C@H](NC(=O)CN)C(=O)N[C@H]2CSSC[C@H](NC(=O)[C@H](CCCNC(=N)N)NC(=O)[C@@H]3CCCN3C(=O)[C@H](CC(=O)O)NC(=O)[C@H](CO)NC2=O)C(=O)N[C@@H](CCCNC(=N)N)C(=O)N[C@@H](Cc2ccc(O)cc2)C(=O)N[C@@H](CCCNC(=N)N)C(=O)N1)C(=O)NCC(=O)O (H-GCCSDPRCRYRCGGAAGAG-OH; disulfide 2-12, 3-8)	7.44	60	7.72	54	
C[C@H](NC(=O)CNC(=O)CNC(=O)[C@@H]1CSSC[C@H](NC(=O)CN)C(=O)N[C@H]2CSSC[C@H](NC(=O)[C@H](CCCNC(=N)N)NC(=O)[C@@H]3CCCN3C(=O)[C@H](CC(=O)O)NC(=O)[C@H](CO)NC2=O)C(=O)N[C@@H](CCCNC(=N)N)C(=O)N[C@@H](Cc2ccc(O)cc2)C(=O)N[C@@H](CCCNC(=N)N)C(=O)N1)C(=O)N[C@@H](C)C(=O)NCC(=O)NCC(=O)O (H-GCCSDPRCRYRCGGAAGG-OH; disulfide 2-12, 3-8)	8.37		< 7.30	43	39
